# Test results as given in patent US20140179681A1, “METHODS AND COMPOSITIONS OF TARGETED DRUG DEVELOPMENT” (priority 2010, published 2014).
# Structures can show the parent of a compound that is named as a salt. Where two headings read alike, the source gives them in different places.
# Columns and labels:
# EGFR = target: T1, EGFR (Homo sapiens, UniProt P00533); experiment: EGFR in-cell Western (ICW) screening protocol (EGFR inhibition assay); type: cell-based; design: ICW 1 / ICW 2 / ICW Avg: unit not given here; conditions: for ICW assay: Table 10; for ICW Avg / ICW 1 / ICW 2: ICW assay; for ICW Avg: average of runs 1 and 2; for ICW 1: run 1; for ICW 2: run 2
# T1 construct: host or cells: A431
# T1 sequence (P00533 25-1210): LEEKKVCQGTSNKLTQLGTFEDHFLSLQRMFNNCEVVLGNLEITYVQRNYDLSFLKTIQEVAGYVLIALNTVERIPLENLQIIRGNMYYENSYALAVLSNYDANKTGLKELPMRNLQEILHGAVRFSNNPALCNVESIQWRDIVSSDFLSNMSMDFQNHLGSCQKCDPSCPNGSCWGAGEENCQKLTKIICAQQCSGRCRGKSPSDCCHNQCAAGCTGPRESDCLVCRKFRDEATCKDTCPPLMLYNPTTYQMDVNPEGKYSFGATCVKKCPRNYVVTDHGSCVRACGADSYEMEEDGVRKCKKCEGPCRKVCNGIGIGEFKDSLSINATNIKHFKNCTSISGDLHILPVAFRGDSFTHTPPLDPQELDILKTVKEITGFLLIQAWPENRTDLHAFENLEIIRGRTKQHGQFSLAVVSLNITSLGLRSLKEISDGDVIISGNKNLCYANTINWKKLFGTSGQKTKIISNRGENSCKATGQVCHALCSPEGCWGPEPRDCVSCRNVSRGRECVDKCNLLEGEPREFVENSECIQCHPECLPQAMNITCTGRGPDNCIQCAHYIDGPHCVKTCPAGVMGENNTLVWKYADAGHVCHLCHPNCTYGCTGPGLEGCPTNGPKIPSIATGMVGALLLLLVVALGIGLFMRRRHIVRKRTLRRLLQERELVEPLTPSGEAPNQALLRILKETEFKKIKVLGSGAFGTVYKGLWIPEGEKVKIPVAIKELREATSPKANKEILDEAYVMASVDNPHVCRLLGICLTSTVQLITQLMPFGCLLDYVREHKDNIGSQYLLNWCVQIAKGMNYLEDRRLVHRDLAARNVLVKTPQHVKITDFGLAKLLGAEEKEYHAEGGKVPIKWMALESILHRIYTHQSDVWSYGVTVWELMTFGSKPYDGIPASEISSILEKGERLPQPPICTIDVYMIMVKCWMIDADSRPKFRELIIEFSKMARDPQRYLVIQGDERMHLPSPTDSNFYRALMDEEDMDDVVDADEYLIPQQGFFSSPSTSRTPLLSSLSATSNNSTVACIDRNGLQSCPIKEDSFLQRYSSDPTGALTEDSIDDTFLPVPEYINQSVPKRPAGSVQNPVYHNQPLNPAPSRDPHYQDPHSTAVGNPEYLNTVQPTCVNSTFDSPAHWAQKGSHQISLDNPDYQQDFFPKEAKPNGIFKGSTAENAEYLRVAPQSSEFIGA
# In short: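 In-cell Western read-out: fixed A431 cells were co-stained for total EGFR and phospho-EGFR (Tyr1173; some runs Tyr1045). Before fixation, cells were serum-starved for 2 h, exposed to compound for 4 h, then given EGF for 10 min, usually at 10 ng/ml final (6.6 or 12.5 ng/ml in some runs).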
# [1] = system: epithelial carcinoma A431 cell line; experiment: MTT Cell Proliferation Assay, A431 cells; type: cell-based; conditions: for MTT Follow-up: ratio in parentheses: ratio MDBK/A431; for MTT Assay IC50(A431/MDBK): ratio in parentheses: ratio MDBK IC50 / A431 IC50 (selectivity)
# In short: (§1)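 Each concentration ran in quadruplicate across duplicate plates, with compounds serially diluted in DMSO and delivered at 0.5% DMSO in 0.5% FBS medium for 3 days.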
# MDBK line = experiment: MTT Cell Proliferation Assay, MDBK cells; type: cell-based, bovine
# In short: as §1
# [2] = % Inhibition of EGF dependent EGFR phosphorylation in A431 cells, compound 125 μM in assay
# [3] = Homo sapiens, A-431, 72 h, Table 10, first of x/y(ratio): A431, three day treatment, unit not printed (doses in μM), read-out: MTT assay (first value)
# [4] = Bos taurus, MDBK, 72 h, Table 10, second of x/y(ratio): MDBK, three day treatment, unit not printed (doses in μM), read-out: MTT assay (second value)
# [5] = Homo sapiens, A-431, first value of 'a/b (c)', taken as A431 cells, read-out: MTT Screen, first value of cell
# [6] = Bos taurus, MDBK, second value of 'a/b (c)', taken as MDBK cells, read-out: MTT Screen, second value of cell
# [7] = Homo sapiens, A-431, A431 cells, first value of cell, read-out: MTT Assay IC50(A431/MDBK): A431
# [8] = Homo sapiens, A-431, follow-up MTT, A431 cells, first value, read-out: MTT Follow-up: A431
# [9] = Bos taurus, MDBK, MDBK cells, second value of cell, read-out: MTT Assay IC50(A431/MDBK): MDBK
# [10] = Bos taurus, MDBK, follow-up MTT, MDBK cells, second value, read-out: MTT Follow-up: MDBK
structure (smiles),measurement,setting,value
CCc1ccc(NC(=S)Nc2ccc(S(=O)(=O)Nc3ccc(Cl)c(Cl)c3)cc2)cc1 [AD4-12430],ICW assay,EGFR; [2],82.0877
same,IC50,[1]; [3],4.07 µM
same,IC50,MDBK line; [4],5.54 µM
COc1ccc(NS(=O)(=O)c2ccc(NC(=S)NC(=O)CCC(=O)OCCc3ccccc3)cc2)cc1 [AD4-12149],ICW Screen (ICW Inhibition),EGFR,33.331
same,IC50,[1]; [5],21.9 µM
same,IC50,MDBK line; [6],36.2 µM
O=C(NC(=S)Nc1ccc(S(=O)(=O)NCCc2ccccc2)cc1)C1CCCC1 [AD4-10609],ICW Screen (ICW Inhibition),EGFR,43.828
same,IC50,[1]; [5],6.84 µM
same,IC50,MDBK line; [6],6.34 µM
CC(C)CC(=O)NC(=S)Nc1ccc(S(=O)(=O)NCCc2ccccc2)cc1 [AD4-10608],ICW Screen (ICW Inhibition),EGFR,62.846
same,IC50,[1]; [5],6.33 µM
same,IC50,MDBK line; [6],5.35 µM
Cc1ccc(NC(=S)Nc2ccc(S(=O)(=O)Nc3cc(Cl)cc(Cl)c3)cc2)cc1Cl [AD4-12522],ICW assay,EGFR; [2],123.893
same,IC50,[1]; [3],6.2 µM
same,IC50,MDBK line; [4],5.33 µM
Cc1ccc2nc(Nc3nc(-c4ccccc4C)cc(=O)[nH]3)nc(C)c2c1 [11785 + TFA],ICW Avg,EGFR,35.54
same,ICW 1,EGFR,41.06
same,ICW 2,EGFR,30.01
same,IC50,[1]; [7],10.3 µM
same,IC50,[1]; [8],24.8 µM
same,MTT Follow-up: ratio in parentheses,[1],1.04
same,MTT Assay IC50(A431/MDBK): ratio in parentheses,[1],0.88
same,IC50,MDBK line; [9],9.15 µM
same,IC50,MDBK line; [10],25.9 µM
Cc1nc(Nc2nc(CSc3nc4ccccc4[nH]3)cc(=O)[nH]2)nc2ccccc12 [compound 11582],ICW Avg,EGFR,49.89
same,ICW 1,EGFR,59.77
same,ICW 2,EGFR,40.01
same,IC50,[1]; [7],2.43 µM
same,IC50,[1]; [8],49.3 µM
same,MTT Follow-up: ratio in parentheses,[1],1.13
same,IC50,MDBK line; [9],2.44 µM
same,IC50,MDBK line; [10],55.9 µM
COc1ccc(N2CCN(Cc3cc(=O)oc4c(C)c(O)ccc34)CC2)cc1 [AD4-10217],ICW Screen,"EGFR; Table 11, % Inhibition of EGF dependent EGFR phosphorylation in A431 cells, compound 125 μM in assay",−1.007
same,IC50,"[1]; Homo sapiens, A-431, 72 h, Table 11, first of x/y(ratio): A431, unit not printed (doses in μM), read-out: MTT Screen (first value)",14 µM
same,MTT Screen (second value),"MDBK line; Table 11, second of x/y(ratio): MDBK, unit not printed (doses in μM)",non-convergent
O=C(NC(=S)Nc1ccc(S(=O)(=O)Nc2ccccc2)cc1)C1CCC1 [AD4-12044],ICW Screen (ICW Inhibition),EGFR,34.334
same,IC50,[1]; [5],63.2 µM
same,IC50,MDBK line; [6],33.1 µM
COc1cccc(-c2cc(=O)[nH]c(Nc3nc(C)c4cccc(OC)c4n3)n2)c1 [11513 + TFA],ICW Avg,EGFR,33.45
same,ICW 1,EGFR,32.64
same,ICW 2,EGFR,34.26
same,IC50,[1]; [7],6.73 µM
same,MTT Assay IC50(A431/MDBK): ratio in parentheses,[1],0.94
same,IC50,MDBK line; [9],6.32 µM
Cc1ccc(NS(=O)(=O)c2ccc(NC(=S)NC(=O)C3CCC3)cc2)cc1C [AD4-11422],ICW Screen (ICW Inhibition),EGFR,44.982
same,IC50,"[1]; first value of 'a/b (c)', taken as A431 cells, read-out: MTT Screen, first value of cell",29.5 µM
same,IC50,"MDBK line; second value of 'a/b (c)', taken as MDBK cells, read-out: MTT Screen, second value of cell",9.23 µM
Cc1ccc2c(C)nc(Nc3nc(CCC(C)C)cc(=O)[nH]3)nc2c1 [11783 + TFA],ICW Avg,EGFR,60.19
same,ICW 1,EGFR,66.95
same,ICW 2,EGFR,53.44
same,IC50,[1]; [7],18.2 µM
same,MTT Assay IC50(A431/MDBK): ratio in parentheses,[1],0.82
same,IC50,MDBK line; [9],15 µM
CCOC(=O)c1c(N)nc(Nc2nc(C)c3cc(C)c(C)cc3n2)nc1-c1ccccc1 [compound 11825],ICW Avg,EGFR,54.02
same,ICW 1,EGFR,52.17
same,ICW 2,EGFR,55.87
same,IC50,[1]; [7],4.06 µM
same,IC50,MDBK line; [9],17.9 µM
COc1cc(NS(=O)(=O)c2ccc(NC(=S)NC(=O)/C=C/c3ccccc3)cc2)nc(OC)n1 [AD4-12122],ICW Screen (ICW Inhibition),EGFR,35.068
same,"MTT Screen, first value of cell","[1]; first value of 'a/b (c)', taken as A431 cells",non- conver- gent
same,IC50,MDBK line; [6],40.3 µM
COc1ccc(C)cc1NC(=S)Nc1ccc(S(=O)(=O)Nc2ccc(Cl)cc2)cc1 [AD4-12485],ICW assay,EGFR; [2],33.3993
same,IC50,[1]; [3],6.98 µM
same,IC50,MDBK line; [4],7.19 µM
O=S(=O)(Nc1ccc(Cl)cc1)c1ccc(NC(=S)Nc2cccc(Cl)c2)cc1 [AD4-12494],ICW assay,EGFR; [2],112.965
same,IC50,[1]; [3],5.64 µM
same,IC50,MDBK line; [4],5.71 µM
O=C(NC(=S)Nc1ccc(S(=O)(=O)NCCc2ccccc2)cc1)C1CC1 [AD4-10120],ICW Screen (ICW Inhibition),EGFR,39.873
same,IC50,[1]; [5],22.8 µM
same,IC50,MDBK line; [6],39.3 µM
CCc1c(C)nc(Nc2nc(C)c3ccc(C)cc3n2)[nH]c1=O [12665 + TFA],ICW Avg,EGFR,44.17
same,ICW 1,EGFR,51.06
same,ICW 2,EGFR,37.29
same,IC50,"[1]; A431 cells, first value of cell, read-out: MTT Assay IC50(A431/MDBK): A431",17.5 µM
same,MTT Assay IC50(A431/MDBK): ratio in parentheses,[1],0.98
same,IC50,"MDBK line; MDBK cells, second value of cell, read-out: MTT Assay IC50(A431/MDBK): MDBK",17.2 µM
